{
  "source": "paper PMC10303920",
  "about": "“Competition between skin antimicrobial peptides and commensal bacteria in type 2 inflammation enables survival of S. aureus” (Cell reports, 2023)",
  "key": {"[1]": {"test_system": "CoNS-AM− strains of S. epidermidis or S. hominis", "assay": "Bacterial survival on pigskin, non-antibiotic-producing CoNS", "assay_type": "cell-based", "details": "LL-37 2.5 nmol on 2.5 × 2.5 cm pigskin sheet, 1 × 10^6 CFU, 30°C, 24 h; Figure 4F", "method": "Fresh-frozen pigskin sheets were obtained from Loretta Tomlin Animal Technologies (Livermore, CA) and sanitized by surgical brush with 3% chloroxylenol. The skin sheet was cut into 2.5 cm × 2.5 cm and rinsed with sterile PBS more than 20 times to remove chloroxylenol residue. Synthetic LL-37 (2.5nanomol/50μL H2O) or equal volume of vehicle was applied to the surface of sanitized pig skin. Antibiotic-producing or non-antibiotic-producing strain of CoNS (1 × 10^6 CFU/10μL PBS) was applied on the pigskin. Pigskin sheet was placed on a 6-well plate and incubated at 30°C for 24 h. The entire skin sheet was rubbed 50 times with nylon foam swab (Puritan) pre-moisturized with PBS to collect bacteria on the skin surface. Swab sample was suspended in 1mL of 85% TSB/15% glycerol and frozen until analysis."}, "[2]": {"test_system": "CoNS with antimicrobial activity within the microbial community of human skin swabs", "assay": "Effect of low dose LL-37 on mixed bacterial communities from healthy human forearm skin in vitro", "assay_type": "cell-based, coagulase-negative Staphylococcus", "details": "skin swabs from forearms of 5 healthy subjects, media with a low dose of LL-37, 4 h; Figure 4H", "method": "Finally, the capacity of AMPs to shape the composition of the skin CoNS community was evaluated by examining the effects of LL-37 on survival of mixed communities of bacteria obtained from human skin (Figure 4G). Skin swab samples were obtained from the forearms of 5 healthy subjects (Table S4), and these mixed bacterial samples were incubated in media without or with a low dose of LL-37 for 4 h.\nIndividual isolated colonies of CoNS from human skin were grown on mannitol-salt agar with egg yolk (pink color without egg yolk reaction), randomly picked and transferred to individual wells containing TSB (400μL) in a 96-well cluster tube. Each plate also contained wells with a non-antimicrobial strain of S. epidermidis (S. epidermidis 1457) as a negative control, a potent antimicrobial strain of Staphylococcus hominis (A9 strain) as positive control, and blank wells without bacteria. CoNS were cultured at 37°C overnight with shaking. Growth was evaluated by OD600. Bacteria were removed by centrifugation followed by sterile filtration with a 0.22μm membrane. Sterile conditioned media were mixed with fresh TSB at 1:1. The antimicrobial activity released from each CoNS clone was evaluated by culturing 1 × 10^4 CFU of S. aureus (ATCC35556) in 200μL of diluted conditioned media at 30°C for 24 h. […] To determine frequency of antimicrobial CoNS, up to 48 CoNS vvvcolonies were analyzed."}},
  "data": [
    {"substance": "LL-37", "values": [
      {"measurement": "Survival of CoNS strains without antibiotic activity on pigskin", "setting": "[1]", "value": "did not inhibit"},
      {"measurement": "Relative proportion of CoNS with antimicrobial activity in mixed bacterial samples", "setting": "[2]", "value": "decreased"}
    ]}
  ]
}
